Test [1] has as its system HCT116. The test can be described thus: efficacy (fitted maximal change in viability relative to DMSO control); higher = less cytotoxic (negative = loss of viability). Particulars: 48 h.
The subject of test [2] is HCT116. The test can be described thus: AC50 cell viability (CellTiter-Glo); higher = less potent. To be noted: 48 h.

Where a name gives a salt, the structure may show the parent alone.
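Wherever AC50 cell viability (CellTiter-Glo) is given: HCT116 colorectal carcinoma cells screened at five concentrations per compound, luminescent viability scaled between DMSO wells and empty wells on each plate, curves fitted per compound.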
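Wherever efficacy (fitted maximal change in viability relative to DMSO control) is given: Luminescence-based viability readout, five doses per compound, normalized against on-plate DMSO and empty-well controls, followed by dose-response curve fitting for every drug.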

With `CC(=O)Oc1ccccc1C(=O)Nc1ncc([N+](=O)[O-])s1` [Nitazoxanide], the efficacy in test [1] is -80.3%. The AC50 cell viability in test [2] is 23.5 µM.

`O=[N+]([O-])c1ccc(O)c2ncccc12` [Nitroxoline]: the efficacy in test [1] is -96.2%. In addition, in test [2], the AC50 cell viability amounted to 10.5 µM.

In the case of `COC(=O)Nc1nc2cc(C(=O)c3cccs3)ccc2[nH]1` [Nocodazole], the efficacy in test [1] is -65.7%. This compound yielded an AC50 cell viability in test [2] of 0.166 µM.

As for `COc1ccc2c(c1OC)C(=O)O[C@H]2[C@H]1c2c(cc3c(c2OC)OCO3)CCN1C` [Noscapine], the efficacy in test [1] is -55.1%. The compound also came in with an AC50 cell viability in test [2] of 14.8 µM.

In the case of `COC1=CC=C(C(=C1)OC(C)C)C/2=N/[C@@H]([C@@H](N2C(=O)N3CCNC(=O)C3)C4=CC=C(Cl)C=C4)C5=CC=C(Cl)C=C5` [Nutlin-3], the efficacy in test [1] was -98.3%. This compound displayed an AC50 cell viability in test [2] of 23.5 µM.

For the compound `NC1CCC(N[C@@H]2C[C@H]2c2ccccc2)CC1` (stereo not given in full) [ORY-1001], the efficacy in test [1] is -36%. The compound also yielded an AC50 cell viability in test [2] of 16.6 µM.

As for `COc1cccc2cc(-c3nc([C@H]4CC[C@H](C(=O)O)CC4)n4ncnc(N)c34)[nH]c12` [OSI-027], the efficacy in test [1] was -94.5%. Moreover, the AC50 cell viability in test [2] was 11.8 µM.

Consider `C#Cc1cccc(Nc2ncnc3cc(OCCOC)c(OCCO)cc23)c1` [OSI-420], for which the efficacy in test [1] was -76.6%. Further, the AC50 cell viability in test [2] turned out to be 6.61 µM.

For `NC(=O)c1c(OCc2c(F)cc(Br)cc2F)nsc1NC(=O)NCCCCN1CCCC1` [OSI-632], the efficacy in test [1] is -100%. Also, the AC50 cell viability in test [2] is 23.5 µM.

Consider `O=C(Nc1ccc(OC(F)(F)F)cc1)c1sccc1NCc1ccnc2ccccc12` [OSI-930], for which the efficacy in test [1] is -77.4%. For the same compound, the AC50 cell viability in test [2] came out at 10.5 µM.

Take `CNC(=O)CCc1cc(-c2ccc(-c3ccc(C(F)(F)F)cc3)cc2)n(-c2ccc(N3CCNCC3)cc2)n1` [OSU-T315]: the efficacy in test [1] was -90.4%. Moreover, the AC50 cell viability in test [2] is 6.61 µM.

Consider `Cc1cc(O)c(-c2ccc([C@@H](C)CN(C)C)cc2)c2c1[nH]c(=O)c1sccc12` [OTS964], for which the efficacy in test [1] is -63.1%. Also, in test [2], the AC50 cell viability amounted to 0.0295 µM.

For the compound `CC(=O)c1cnc2ccc(-c3cc(Cl)c(O)c(Cl)c3)nc2c1N[C@H]1CC[C@H](CN(C)C)CC1` [OTS-167], the efficacy in test [1] is -70.5%. For the same compound, in test [2], the AC50 cell viability was found to be 0.0539 µM.

With `Nc1nccn2c1c(-c1cc3cccc(Cl)c3[nH]1)nc2[C@H]1CC[C@H](C(=O)O)CC1` [OXA-01], the efficacy in test [1] was -65.8%. For the same compound, the AC50 cell viability in test [2] worked out at 9.34 µM.

On to `COC1=CC(c2cc3ccccc3[nH]2)=N/C1=C/c1[nH]c(C)cc1C` [Obatoclax], for which, in test [1], the efficacy is -90%. The compound further showed an AC50 cell viability in test [2] of 1.66 µM.

For the compound `CC[C@H]1/C=C\C=C/C[C@@H](C)[C@H](O)[C@@](C)(O)C(=O)[C@@H](C)[C@H](O)[C@@H](C)C(=O)[C@@H](C)[C@H](O)[C@@H](C)/C=C/C(=O)O[C@@H]2[C@H](C)[C@H](CC1)O[C@]1(CC[C@H](C)[C@H](C[C@@H](C)O)O1)[C@H]2C` [Oligomycin A], the efficacy in test [1] is -112%. The AC50 cell viability in test [2] is 16.6 µM.

Turning to `C=CC(=O)Nc1cccc(Oc2nc(Nc3ccc(N4CCN(C)CC4)cc3)nc3ccsc23)c1` [Olmutinib], in test [1], the efficacy was -98.2%. For the same compound, the AC50 cell viability in test [2] was determined as 8.33 µM.

In the case of `COC(=O)C[C@](O)(CCCC(C)(C)O)C(=O)O[C@@H]1C(OC)=CC23CCCN2CCc2cc4c(cc2[C@H]13)OCO4` (stereo not given in full) [Omacetaxine mepesuccinate], the efficacy in test [1] was -68.3%. Moreover, the AC50 cell viability in test [2] was determined as 0.0235 µM.

On to `CC1(C)CC[C@@]2(CC[C@]3(C)[C@@H]([C@@H]2C1)C(=O)\C=C\4[C@@]3(C)CC[C@H]5C(C)(C)C(=O)\C(=C/[C@]45C)C#N)NC(=O)C(C)(F)F` [Omaveloxolone], for which the efficacy in test [1] was -91.5%. The compound further registered an AC50 cell viability in test [2] of 5.9 µM.

For the compound `COc1ccc(/C=C\c2cc(OC)c(OC)c(OC)c2)cc1NC(=O)[C@H](N)CO` [Ombrabulin], the efficacy in test [1] was -62.9%. Also, the AC50 cell viability in test [2] was 0.148 µM.

With `CC(C)c1cc(C(=O)N2Cc3ccc(CN4CCN(C)CC4)cc3C2)c(O)cc1O` [Onalespib], the efficacy in test [1] was -54.3%. This compound also yielded an AC50 cell viability in test [2] of 0.118 µM.

For the compound `COC[C@H](NC(=O)c1cnc(C)s1)C(=O)N[C@@H](COC)C(=O)N[C@@H](Cc1ccccc1)C(=O)[C@@]1(C)CO1` [Oprozomib], the efficacy in test [1] is -88.1%. In test [2], this compound yielded an AC50 cell viability of 0.0742 µM.

In the case of `Cc1[nH]c(/C=C2\C(=O)Nc3ccccc32)c(C)c1CCC(=O)O` [Orantinib], in test [1], the efficacy is -49.3%. The compound also came in with an AC50 cell viability in test [2] of 23.5 µM.

Regarding `C=C1C(=O)[C@@]23C(CC[C@@H]1[C@H]2O)[C@@]12CO[C@]3(O)[C@@H](O)[C@@H]1C(C)(C)CC[C@@H]2O` (stereo not given in full) [Oridonin], the efficacy in test [1] is -98.8%. The same compound returned an AC50 cell viability in test [2] of 13.2 µM.

With `C=CC(=O)Nc1cc(Nc2nccc(-c3cn(C)c4ccccc34)n2)c(OC)cc1N(C)CCN(C)C` [Osimertinib mesylate], the efficacy in test [1] was -103%. This compound also had an AC50 cell viability in test [2] of 8.33 µM.

In the case of `C[C@](O)(COc1ccc(C#N)cc1)C(=O)Nc1ccc(C#N)c(C(F)(F)F)c1` [Ostarine], the efficacy in test [1] was -91.5%. In addition, the AC50 cell viability in test [2] was 20.9 µM.

Turning to `CCNC1(C(N)=O)CCN(c2ncnc3c2nc(-c2ccccc2Cl)n3-c2ccc(Cl)cc2)CC1` [Otenabant], in test [1], the efficacy is -97.3%. The compound further yielded an AC50 cell viability in test [2] of 23.5 µM.

As to `O=C1[O][Pt]2([NH]C3CCCCC3[NH]2)[O]C1=O` (stereo not given) [Oxaliplatin], the efficacy in test [1] is -42.2%. This compound returned an AC50 cell viability in test [2] of 9.11 µM.

For the compound `O=C(/C=C/C#Cc1cccc(N[S+](=O)([O-])c2ccccc2)c1)NO` [Oxamflatin], in test [1], the efficacy was -99.5%. The compound also gave an AC50 cell viability in test [2] of 1.02 µM.

On to `COC(=O)Nc1nc2cc([S+]([O-])c3ccccc3)ccc2[nH]1` (stereo not given) [Oxfendazole], for which the efficacy in test [1] was -47.9%. Further, in test [2], the AC50 cell viability amounted to 6.61 µM.

For `CCCOc1ccc2[nH]c(NC(=O)OC)nc2c1` [Oxibendazole], the efficacy in test [1] is -64.9%. In test [2], this compound returned an AC50 cell viability of 0.295 µM.

Regarding `O=C(c1ccc(Nc2nc(C3CC3)cn3c(-c4cn[nH]c4)cnc23)c(F)c1)N1CCOCC1` [P21d hydrochloride], the efficacy in test [1] was -86.2%. For the same compound, the AC50 cell viability in test [2] turned out to be 14.8 µM.

On to `C=CCc1cccc(/C=N/NC(=O)CN2CCN(Cc3ccccc3)CC2)c1O` [PAC-1], for which, in test [1], the efficacy was -94.4%. This compound had an AC50 cell viability in test [2] of 7.42 µM.

For the compound `COc1cccc2c1CCCC2CCCN1CCN(C2CCCCC2)CC1` (stereo not given) [PB-28], the efficacy in test [1] was -91.3%. This compound also yielded an AC50 cell viability in test [2] of 16.6 µM.

For the compound `COc1ccc(-c2c(-c3ccc(O)cc3O)n[nH]c2C)cc1` [PDHK RIKEN], the efficacy in test [1] is -47.1%. In test [2], the AC50 cell viability amounted to 20.9 µM.

For `Cc1cc(C[S+](=O)([O-])c2ccccc2)cc(OCc2ccc(CN3CCC[C@@H]3CO)cc2)c1` [PF-543], the efficacy in test [1] was -92.7%. For the same compound, the AC50 cell viability in test [2] is 16.6 µM.

Turning to `O=C(Nc1cccnc1)N1CCC(Cc2cccc(Oc3ccc(C(F)(F)F)cn3)c2)CC1` [PF-3845], the efficacy in test [1] was -82.1%. Further, in test [2], the AC50 cell viability was determined as 13.2 µM.

Consider `CCCOc1ccc(CCc2nc3cc(-c4c(C)noc4C)ccc3n2CCN2CCOCC2)cc1` [PF-CBP1], for which the efficacy in test [1] is -94.5%. The compound further had an AC50 cell viability in test [2] of 14.8 µM.

For `O=C(/C=C/c1ccc2ccc(C(F)(F)F)cc2n1)c1ccncc1` [PFK-158], the efficacy in test [1] is -89%. Besides, in test [2], the AC50 cell viability worked out at 3.72 µM.

Take `CN1CCN(c2cc(C(=O)Nc3ccc4c(c3)-c3c(c(C(N)=O)nn3-c3ccc(F)cc3)CC4)c(Cl)cn2)CC1` [PHA-408]: in test [1], the efficacy was -98.2%. The compound further showed an AC50 cell viability in test [2] of 20.9 µM.

As to `Oc1cccc(-c2nc(N3CCOCC3)c3oc4ncccc4c3n2)c1` [PI-103], the efficacy in test [1] was -57.3%. Also, in test [2], the AC50 cell viability was 1.32 µM.

As for `Fc1ccc2[nH]ccc2c1-c1nc(N2CCOCC2)c2sc(CN3CCN(CC4CC4)CC3)cc2n1` [PI-3065], the efficacy in test [1] is -95.1%. Further, the AC50 cell viability in test [2] was 18.6 µM.

Turning to `Cc1ccc([N+](=O)[O-])cc1[S+](=O)([O-])N(C)/N=C/c1cnc2ccc(Br)cn12` [PIK-75], the efficacy in test [1] was -60.8%. In test [2], this compound returned an AC50 cell viability of 0.0525 µM.

Consider `COC1=CC=C2/C3=N/CCN3\C(=N/C2=C1OC)NC(=O)C4=CC=CN=C4` [PIK-90], for which, in test [1], the efficacy is -37.1%. In test [2], this compound returned an AC50 cell viability of 0.263 µM.

Regarding `CC(=O)Nc1nc(C)c(-c2ccc(Cl)c([S+](=O)([O-])NCCO)c2)s1` [PIK-93], the efficacy in test [1] is -85.9%. This compound also had an AC50 cell viability in test [2] of 8.33 µM.

For `C[C@@H](Nc1ncnc2[nH]c(-c3ccc(O)cc3)cc12)c1ccccc1` [PKI-166], the efficacy in test [1] was -84.7%. The same compound registered an AC50 cell viability in test [2] of 14.8 µM.

For the compound `CCn1nnc2c(N3CCOCC3)nc(-c3ccc(NC(=O)Nc4ccc(C(=O)N5CCN(C)CC5)cc4)cc3)nc21` [PKI-402], the efficacy in test [1] was -64.4%. Moreover, the AC50 cell viability in test [2] came to 0.118 µM.

As for `FC(F)(F)c1ccc(C/N=c2\ccc(Cc3c[nH]c4ncccc34)c[nH]2)cc1` [PLX-647], the efficacy in test [1] is -76.1%. In test [2], this compound had an AC50 cell viability of 13.2 µM.

On to `CCC[S+](=O)([O-])Nc1ccc(F)c(C(=O)c2c[nH]c3ncc(Cl)cc23)c1F` [PLX-4720], for which the efficacy in test [1] was -38.4%. The same compound had an AC50 cell viability in test [2] of 16.6 µM.

`CCN(C)[S+](=O)([O-])Nc1ccc(F)c(C(=O)c2c[nH]c3ncc(-c4cnc(C5CC5)nc4)cc23)c1F` [PLX-7904]: the efficacy in test [1] was -69.9%. In addition, in test [2], the AC50 cell viability turned out to be 16.6 µM.

The record behind these values is the supplement of paper PMC10290057.
